Converted amounts (≈) assume the structure as drawn. Like-named read-outs stand apart in the source and are kept apart here.
Tests used:
ESKAPE panel = assay: MIC against the ESKAPE panel; type: cell-based; settings: E. faecium, S. aureus, K. pneumoniae, A. baumannii, P. aeruginosa, Enterobacter species
Description: Minimum-inhibitory Concentration Determination. MICs for C. difficile strains and other gut bacteria were determined with the broth microdilution method as previously described (J. Antimicrob. Chemother. 2013, 68, 515). ESKAPE panel and MRSA MICs were determined as described in the Clinical & Laboratory Standards Institute guidelines.

[1] = system: stationary-phase C. difficile; assay: Time-kill assay, stationary-phase C. difficile; type: cell-based, Clostridioides difficile; settings: 8×, 16×, and 32×MIC
Description: Time-kill assay. […] A control tube without antibiotic was also included. At intervals of 4, 8, and 24 h, 100-μL aliquots of the cultures were plated onto pre-reduced brain heart infusion broth agar media for colony counts. […] The experiment was done in triplicate.

C. difficile ATCC 43255 = assay: Mouse model of recurrent C. difficile infection; type: in vivo, mice; settings: VAN 50 mg/kg oral once a day for 5 days; days 10-15
Description: Next, compound 1 was evaluated in a mouse model of recurrent CDI.
Animals. Female C57BL/6 mice weighing 18-20 g and 6-8 weeks of age were used for the efficacy study (Jackson, Bar Harbor, Me.). Female CD-1 mice (24-31 g and 7-8 weeks of age) were used for the PK study. They were housed in groups of five mice in sterile polycarbonate shoeboxes with bedding consisting of ¼-inch corncob (The Andersons Ind., Maumee, Ohio) and Alpha-Dri (Shepherd Specialty Papers, Inc., Richland, Mich.). Mice were maintained on a 12-h light/dark cycle at 72° F. and were given Teklad 2918 irradiated extruded rodent diet and water ad libitum. All procedures were performed in accordance with and approved by the University of Notre Dame Institutional Animal Care and Use Committee.
C. difficile infection model. The recurrent C. difficile infection model reported by Chen et al. was used (Gastroenterology 2008, 135, 1984). […] Subsequently, mice were given a 10 mg/kg intraperitoneal injection of clindamycin. The following day, the mice were infected intragastrically with 10^4 CFU of C. difficile ATCC 43255. […] Body weights and survival were recorded for 25 days. The study was repeated a second time.

[2] = system: C. difficile strain ATCC43255; assay: Serial passage for development of resistance; type: cell-based, Clostridioides difficile; settings: for increase of MIC on serial passage: C. difficile ATCC43255, 25 passages; for MIC: Clostridioides difficile
C. difficile ATCC43255 = assay: Macromolecular synthesis assay (radioactive precursor incorporation); type: cell-based, Clostridioides difficile; settings: 0.5×MIC
Description: FIG. 2. Mechanism of action of compound 1. (A) Macromolecular biosynthesis assays: Compound 1 was incubated with C. difficile ATCC43255 at 0.5×MIC. […] The incubation time was 60 min for DNA, 120 min for peptidoglycan synthesis and RNA, and 180 min for protein synthesis. (B-G) Imaging of C. difficile […] vegetative cells (logarithmic growth) by scanning electron microscopy.
The mechanism of action of 1 was investigated using macromolecular synthesis assays. These assays measure the incorporation of radioactive precursors ([2,8-^3H]-adenine, [5,6-^3H]-uridine, 1-[3,4,5-^3H(N)]-leucine, and N-acetyl-d-[6-^3H]glucosamine) respectively into DNA, RNA, protein, and peptidoglycan. […] This analysis visualizes the cell wall as the outermost layer of the cell envelope of Gram-positive bacteria such as C. difficile.
Macromolecular synthesis assay. The macromolecular synthesis assay was performed by established methods. […] The radiolabeled precursors were purchased from Perkin Elmer (Waltham, Mass., USA).

C. difficile = assay: Minimum bactericidal concentration (MBC); type: cell-based, Clostridioides difficile

## O=C(Nc1ncco1)c1ccnc(-c2ccc(Cl)c(Cl)c2)c1 [Compound 4, 2-(3,4-Dichlorophenyl)-N-(oxazol-2-yl)isonicotinamide]
ESKAPE panel
  activity against the ESKAPE panel: active only against the Gram-positive members of the panel

## CN[C@H](CC(C)C)C(=O)N[C@H]1C(=O)N[C@@H](CC(N)=O)C(=O)N[C@H]2C(=O)N[C@H]3C(=O)N[C@H](C(=O)N[C@H](C(=O)O)c4cc(O)cc(O)c4-c4cc3ccc4O)[C@H](O)c3ccc(c(Cl)c3)Oc3cc2cc(c3O[C@@H]2O[C@H](CO)[C@@H](O)[C@H](O)[C@H]2O[C@H]2C[C@](C)(N)[C@H](O)[C@H](C)O2)Oc2ccc(cc2Cl)[C@H]1O [VAN, vancomycin, reference compound]
[1]
  reduction of C. difficile stationary-phase growth: 1 log10
C. difficile ATCC 43255
  recurrence of infection (loss of body weight): recurrence of infection is observed
[2]
  increase of MIC on serial passage: 8 fold
[2]; C. difficile ATCC43255, sub-MIC concentrations, 25 passages, read-out: MIC after serial passage
  MIC: 4 mg/L (≈ 2.76 µM)

## O=C(O)c1ccc2oc(NC(=O)c3cc(Oc4cccc(OC(F)(F)F)c4)ccn3)nc2c1 [Compound 1, Sodium 2-(4-(3-(trifluoromethoxy)phenoxy)picolinamido)benzo[d]oxazole-5-carboxylate]
[1]
  reduction of C. difficile stationary-phase growth: 2 log10
[2]
  increase of MIC on serial passage: 8 fold
[2]; ATCC43255, read-out: MIC after serial passage
  MIC: 1 mg/L
[2]; ATCC43255, read-out: starting MIC in serial passage
  MIC: 0.125 mg/L
C. difficile ATCC43255
  inhibition of DNA, RNA, and protein synthesis: Minimal levels of inhibition
C. difficile ATCC43255; N-acetyl-d-[6-^3H]glucosamine incorporation, 120 min
  inhibition of cell-wall peptidoglycan biosynthesis: 55±4%
C. difficile; C. difficile
  MBC higher than MIC: 64 fold
C. difficile; Clostridioides difficile, C. difficile
  MBC: 4 mg/L
C. difficile; from MBC versus MIC
  bacteriostatic or bactericidal (by definition): bacteriostatic

Source: patent US20230271950A1, “ANTIBACTERIAL PICOLINAMIDE COMPOUNDS” (University of Notre Dame Du Lac, priority 2020, published 2023)
